Data on 23 compounds can be found in ChEMBL document CHEMBL1833909, “Synthesis and structure-activity relationships of 4,5-fused pyridazinones as histamine H₃ receptor antagonists” (Bioorg Med Chem Lett, 2011).

For series [1], the target named is T1, Histamine H3 receptor (Homo sapiens, UniProt Q9Y5N1). The series can be described thus: biochemical.
The target of series [2] is Histamine H3 receptor (Rattus norvegicus, UniProt Q9QYN8). In words: Displacement of [3H]-NAMH from rat histamine H3 receptor expressed in CHO cells. It is filed as cell-based. On the technique in general: Loss of bound radioactivity is the signal in a displacement assay; it reports binding, not function.
Chain of Histamine H3 receptor (Rattus norvegicus, UniProt Q9QYN8) (Q9QYN8 whole entry): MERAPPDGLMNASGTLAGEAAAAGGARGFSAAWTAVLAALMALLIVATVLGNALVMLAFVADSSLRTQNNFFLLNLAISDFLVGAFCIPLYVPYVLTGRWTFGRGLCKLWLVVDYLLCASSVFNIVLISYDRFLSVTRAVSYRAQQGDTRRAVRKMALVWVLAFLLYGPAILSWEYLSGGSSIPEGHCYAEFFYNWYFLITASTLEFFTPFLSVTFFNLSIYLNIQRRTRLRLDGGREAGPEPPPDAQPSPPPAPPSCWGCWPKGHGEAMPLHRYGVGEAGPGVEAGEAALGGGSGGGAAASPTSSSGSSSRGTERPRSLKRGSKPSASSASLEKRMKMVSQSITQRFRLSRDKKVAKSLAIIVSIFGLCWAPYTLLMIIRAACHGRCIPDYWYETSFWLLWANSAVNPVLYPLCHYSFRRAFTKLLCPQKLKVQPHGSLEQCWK
In series [3] the target is Cytochrome P450 2C9 (Homo sapiens, UniProt P11712). The series can be described thus: Inhibition of CYP2C9. It counts as ADME.
Chain of Cytochrome P450 2C9 (P11712 whole entry): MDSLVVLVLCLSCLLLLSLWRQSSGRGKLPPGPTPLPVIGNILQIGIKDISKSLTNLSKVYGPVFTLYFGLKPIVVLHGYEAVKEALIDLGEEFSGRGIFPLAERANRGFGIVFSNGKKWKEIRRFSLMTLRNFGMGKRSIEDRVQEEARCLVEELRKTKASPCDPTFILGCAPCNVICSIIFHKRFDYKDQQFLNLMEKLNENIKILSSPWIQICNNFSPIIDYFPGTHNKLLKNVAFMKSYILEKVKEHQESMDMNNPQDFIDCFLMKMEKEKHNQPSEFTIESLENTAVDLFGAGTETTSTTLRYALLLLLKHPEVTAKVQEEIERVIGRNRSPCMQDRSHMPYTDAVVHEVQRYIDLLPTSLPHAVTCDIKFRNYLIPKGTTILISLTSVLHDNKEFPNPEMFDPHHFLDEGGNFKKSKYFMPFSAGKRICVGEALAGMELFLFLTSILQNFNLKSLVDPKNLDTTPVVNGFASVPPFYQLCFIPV
In series [4] the target is T1, Histamine H3 receptor. The series can be described thus: Antagonist activity at recombinant human histamine H3 receptor assessed as inhibition of RAMH-induced [35S]GTPgammaS binding. It counts as functional.
The target of series [5] is Cytochrome P450 2D6 (Homo sapiens, UniProt P10635). The series can be described thus: Inhibition of CYP2D6. It counts as ADME.
Chain of Cytochrome P450 2D6 (P10635 whole entry): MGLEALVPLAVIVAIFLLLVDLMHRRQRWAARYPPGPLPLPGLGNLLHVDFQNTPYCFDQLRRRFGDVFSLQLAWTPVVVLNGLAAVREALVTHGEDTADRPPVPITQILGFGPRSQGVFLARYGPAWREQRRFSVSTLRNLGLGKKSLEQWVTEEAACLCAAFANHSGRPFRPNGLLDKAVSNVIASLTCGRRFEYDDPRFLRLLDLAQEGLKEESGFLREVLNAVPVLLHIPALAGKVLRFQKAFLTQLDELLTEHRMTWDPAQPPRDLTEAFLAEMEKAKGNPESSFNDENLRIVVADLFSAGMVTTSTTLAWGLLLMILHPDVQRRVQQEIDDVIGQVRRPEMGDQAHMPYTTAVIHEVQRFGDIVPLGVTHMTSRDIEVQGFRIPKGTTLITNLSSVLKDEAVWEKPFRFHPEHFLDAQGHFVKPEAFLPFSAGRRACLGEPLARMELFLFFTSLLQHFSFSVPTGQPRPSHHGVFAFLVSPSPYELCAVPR
In series [6] the target is Cytochrome P450 2C19 (Homo sapiens, UniProt P33261). The series can be described thus: Inhibition of CYP2C19. It is filed as ADME.
Chain of Cytochrome P450 2C19 (P33261 whole entry): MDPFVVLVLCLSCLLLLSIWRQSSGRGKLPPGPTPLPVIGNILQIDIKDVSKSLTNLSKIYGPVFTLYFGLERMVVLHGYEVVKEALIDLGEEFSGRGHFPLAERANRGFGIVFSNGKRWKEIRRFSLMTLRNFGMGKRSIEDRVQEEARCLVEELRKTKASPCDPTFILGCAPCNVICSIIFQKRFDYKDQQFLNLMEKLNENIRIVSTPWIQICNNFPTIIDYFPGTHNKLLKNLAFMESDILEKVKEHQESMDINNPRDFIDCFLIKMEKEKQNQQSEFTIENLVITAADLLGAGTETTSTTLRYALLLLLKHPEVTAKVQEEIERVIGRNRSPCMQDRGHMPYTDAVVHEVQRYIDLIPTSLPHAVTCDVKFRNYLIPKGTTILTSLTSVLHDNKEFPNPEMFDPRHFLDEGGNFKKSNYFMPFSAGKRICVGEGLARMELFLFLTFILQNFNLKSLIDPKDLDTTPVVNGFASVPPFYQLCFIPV
Series [7] deals with T2, Cytochrome P450 1A2 (Homo sapiens, UniProt P05177).
T2 sequence (P05177 whole entry): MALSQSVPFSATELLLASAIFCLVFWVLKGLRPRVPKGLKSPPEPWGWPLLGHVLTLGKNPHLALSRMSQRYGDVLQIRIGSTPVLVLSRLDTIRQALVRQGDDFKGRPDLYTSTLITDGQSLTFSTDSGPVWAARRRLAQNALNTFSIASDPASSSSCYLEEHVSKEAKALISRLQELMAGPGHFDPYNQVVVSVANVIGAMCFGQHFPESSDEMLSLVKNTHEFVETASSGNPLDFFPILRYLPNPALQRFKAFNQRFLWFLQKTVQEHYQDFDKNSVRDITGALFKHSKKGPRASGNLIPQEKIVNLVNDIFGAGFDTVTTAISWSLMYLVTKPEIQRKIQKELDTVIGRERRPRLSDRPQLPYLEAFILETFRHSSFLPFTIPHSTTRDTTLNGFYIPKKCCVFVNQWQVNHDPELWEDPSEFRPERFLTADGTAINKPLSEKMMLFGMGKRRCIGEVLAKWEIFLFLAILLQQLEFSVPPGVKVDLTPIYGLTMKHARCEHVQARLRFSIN
In words: Inhibition of CYP1A2. It is filed as ADME.

Series [8] addresses T1, Histamine H3 receptor. In words: Inverse agonist activity at human histamine H3 receptor assessed as decrease of basal activity of [35S]GTPgammaS binding. It is filed as functional.
The target in series [9] is Cytochrome P450 3A4 (Homo sapiens, UniProt P08684). In words: Inhibition of CYP3A4. It is filed as ADME.
Chain of Cytochrome P450 3A4 (P08684 whole entry): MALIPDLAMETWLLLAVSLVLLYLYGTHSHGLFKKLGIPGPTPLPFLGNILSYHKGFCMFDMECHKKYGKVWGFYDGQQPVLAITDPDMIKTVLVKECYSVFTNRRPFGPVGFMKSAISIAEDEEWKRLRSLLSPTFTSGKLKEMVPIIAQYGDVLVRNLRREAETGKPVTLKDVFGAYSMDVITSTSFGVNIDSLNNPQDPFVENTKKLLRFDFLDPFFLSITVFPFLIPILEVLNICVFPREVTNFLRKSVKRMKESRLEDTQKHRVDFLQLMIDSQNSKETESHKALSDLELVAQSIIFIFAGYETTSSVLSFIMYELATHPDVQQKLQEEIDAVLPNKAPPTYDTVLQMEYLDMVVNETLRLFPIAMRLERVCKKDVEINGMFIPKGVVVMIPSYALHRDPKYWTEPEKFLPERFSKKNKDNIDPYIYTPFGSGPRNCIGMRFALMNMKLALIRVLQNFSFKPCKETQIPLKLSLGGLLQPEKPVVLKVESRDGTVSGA
Series [10] in a line: Oral bioavailability in rat at 5 mg/kg. It counts as ADME, organism-based. The following applies: in vivo.
The nature of series [11]: Ratio of drug level in brain to plasma in ip dosed rat after 1 hr. It counts as ADME, organism-based. The following applies: read-out: BPR.
Series [12] is described as follows: AUC in rat at 1 mg/kg, iv. It counts as ADME, organism-based. The conditions noted are these: plasma. Also noted: dose 1 mg/kg, route intravenous.
Series [13] is described as follows: Cmax in rat at 5 mg/kg, po. Further details: dose 5 mg/kg, route oral. The following applies: in vivo. It is filed as ADME, organism-based.
Series [14] in a line: Half life in rat at 1 mg/kg, iv. It counts as ADME, organism-based. Also noted: dose 1 mg/kg, route intravenous. The following applies: in vivo.
Series [15] is described as follows: Clearance in rat at 1 mg/kg, iv. The following applies: in vivo. It counts as ADME, organism-based. Also noted: dose 1 mg/kg, route intravenous.
Series [16] in a line: Volume of distribution in rat at 1 mg/kg, iv. It is filed as ADME, organism-based. Further details: dose 1 mg/kg, route intravenous. The conditions noted are these: in vivo.
Series [17] in a line: Inhibition of dihydropyridine site of calcium channel at 10 uM.
For series [18], the target named is Histamine H1 receptor (Homo sapiens) (UniProt P35367). In words: Inhibition of human histamine H1 receptor at 10 uM.
Chain of Histamine H1 receptor (Homo sapiens) (P35367 whole entry): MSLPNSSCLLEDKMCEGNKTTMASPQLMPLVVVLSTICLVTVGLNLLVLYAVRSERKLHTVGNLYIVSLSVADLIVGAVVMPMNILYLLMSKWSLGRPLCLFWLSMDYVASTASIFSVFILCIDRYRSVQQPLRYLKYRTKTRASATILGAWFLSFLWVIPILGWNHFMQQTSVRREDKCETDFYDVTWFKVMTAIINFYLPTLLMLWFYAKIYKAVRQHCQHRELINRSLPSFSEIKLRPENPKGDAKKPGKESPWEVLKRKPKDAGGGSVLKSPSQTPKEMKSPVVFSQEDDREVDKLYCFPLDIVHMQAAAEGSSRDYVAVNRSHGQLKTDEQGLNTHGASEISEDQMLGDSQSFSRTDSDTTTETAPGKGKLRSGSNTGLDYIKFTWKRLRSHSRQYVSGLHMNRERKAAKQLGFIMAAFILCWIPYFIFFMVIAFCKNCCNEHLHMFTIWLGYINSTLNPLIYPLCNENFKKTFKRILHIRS
Series [19] addresses Histamine H4 receptor (Homo sapiens) (UniProt Q9H3N8). The series can be described thus: Inhibition of human histamine H4 receptor at 10 uM.
Series [20] addresses Histamine H2 receptor (Homo sapiens) (UniProt P25021). The series can be described thus: Inhibition of human histamine H2 receptor at 10 uM.
For series [21], the target named is hERG (KCNH2) (Homo sapiens, UniProt Q12809). In words: Inhibition of human ERG at 10 uM by patch clamp assay. (Patch clamp records ionic current or voltage across a cell membrane.)
A short description of series [22]: AUC in rat at 5 mg/kg, po. It counts as ADME, organism-based. Further details: dose 5 mg/kg, route oral. The following applies: plasma.
Series [23] has as its target Sodium-dependent noradrenaline transporter (Homo sapiens) (UniProt P23975). The series can be described thus: Inhibition of norepinephrine transporter at 10 uM.
Series [24] in a line: Half life in dog liver microsomes. It is filed as ADME, Canis lupus familiaris, Microsome. On the technique in general: Liver microsomes are a subcellular fraction often used to study metabolism.
Series [25] can be described thus: Half life in rat liver microsomes. It is filed as ADME, Microsome.
The nature of series [26]: Half life in human liver microsomes. It counts as ADME, Microsome.

A value given as a limit tells only on which side of the number the result lay.

T1 sequence (Q9Y5N1 whole entry): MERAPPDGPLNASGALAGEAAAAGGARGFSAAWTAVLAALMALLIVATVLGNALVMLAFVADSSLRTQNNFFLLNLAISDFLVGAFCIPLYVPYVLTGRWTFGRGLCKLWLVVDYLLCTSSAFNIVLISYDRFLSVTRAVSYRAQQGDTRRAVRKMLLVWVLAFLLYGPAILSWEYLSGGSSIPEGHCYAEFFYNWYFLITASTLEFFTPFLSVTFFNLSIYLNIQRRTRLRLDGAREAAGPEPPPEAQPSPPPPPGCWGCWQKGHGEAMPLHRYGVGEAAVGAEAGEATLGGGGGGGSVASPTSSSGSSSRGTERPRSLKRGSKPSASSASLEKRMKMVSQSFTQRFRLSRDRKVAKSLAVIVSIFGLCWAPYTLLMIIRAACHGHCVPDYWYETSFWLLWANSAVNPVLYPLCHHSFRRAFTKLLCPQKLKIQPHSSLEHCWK
Chain of Sodium-dependent noradrenaline transporter (Homo sapiens) (P23975 whole entry): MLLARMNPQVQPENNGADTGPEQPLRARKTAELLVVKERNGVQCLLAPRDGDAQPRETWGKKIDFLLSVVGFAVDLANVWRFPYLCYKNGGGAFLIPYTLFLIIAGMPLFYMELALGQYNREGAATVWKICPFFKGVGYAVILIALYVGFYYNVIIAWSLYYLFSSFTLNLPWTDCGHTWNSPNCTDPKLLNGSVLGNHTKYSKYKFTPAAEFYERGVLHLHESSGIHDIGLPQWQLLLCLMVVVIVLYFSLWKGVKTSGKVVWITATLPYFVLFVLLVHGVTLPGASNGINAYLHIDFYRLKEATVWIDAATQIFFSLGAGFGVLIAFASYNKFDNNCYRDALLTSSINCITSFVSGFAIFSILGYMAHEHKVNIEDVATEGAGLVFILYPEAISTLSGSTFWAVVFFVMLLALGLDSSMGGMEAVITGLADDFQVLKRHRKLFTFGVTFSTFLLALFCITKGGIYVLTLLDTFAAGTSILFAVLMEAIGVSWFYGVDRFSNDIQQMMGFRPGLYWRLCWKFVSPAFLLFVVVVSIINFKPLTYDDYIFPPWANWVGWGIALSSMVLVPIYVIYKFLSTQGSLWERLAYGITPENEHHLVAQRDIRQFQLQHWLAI
Chain of Histamine H2 receptor (Homo sapiens) (P25021 whole entry): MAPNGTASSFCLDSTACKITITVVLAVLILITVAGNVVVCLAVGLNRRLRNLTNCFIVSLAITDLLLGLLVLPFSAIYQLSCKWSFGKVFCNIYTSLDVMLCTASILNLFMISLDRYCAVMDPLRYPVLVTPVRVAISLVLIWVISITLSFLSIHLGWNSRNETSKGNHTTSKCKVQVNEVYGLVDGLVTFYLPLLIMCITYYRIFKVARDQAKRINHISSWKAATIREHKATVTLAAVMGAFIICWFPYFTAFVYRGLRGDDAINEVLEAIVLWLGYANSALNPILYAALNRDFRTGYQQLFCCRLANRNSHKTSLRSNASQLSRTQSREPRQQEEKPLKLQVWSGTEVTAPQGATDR
Chain of Histamine H4 receptor (Homo sapiens) (Q9H3N8 whole entry): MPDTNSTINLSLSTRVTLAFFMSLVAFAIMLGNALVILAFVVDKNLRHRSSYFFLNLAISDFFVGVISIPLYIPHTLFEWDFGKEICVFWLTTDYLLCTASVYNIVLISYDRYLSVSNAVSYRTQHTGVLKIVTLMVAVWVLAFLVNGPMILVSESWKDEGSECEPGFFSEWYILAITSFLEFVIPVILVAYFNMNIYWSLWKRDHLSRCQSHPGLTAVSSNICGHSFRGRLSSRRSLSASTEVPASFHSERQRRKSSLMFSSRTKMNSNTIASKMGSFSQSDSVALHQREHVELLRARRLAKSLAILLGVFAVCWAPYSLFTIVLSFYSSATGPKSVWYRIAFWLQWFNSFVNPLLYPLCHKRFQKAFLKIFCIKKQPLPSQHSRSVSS

For orientation: Ki means a dissociation constant, usually derived from enzyme kinetics or from competition with a known ligand. Low readings indicate tighter binding, high ones weaker binding. As to `O=c1c2ccsc2c(-c2ccc(OCCCN3CCCCC3)cc2)nn1Cc1ccc(Cl)cc1`, the values for the Ki in series [1] and in [2] were 48 nM and 143 nM, respectively.
Taken in the same sequence, the figures for `CCCn1nc(-c2ccc(OCCCN3CCC(C)CC3)cc2)c2sccc2c1=O` were 23 nM and 58 nM.
Broadly, the IC50 is the concentration that inhibits the measured activity by half. Lower therefore signals higher potency. Broadly, the Kb is the equilibrium dissociation constant of an antagonist, usually derived from a functional assay. In general, EC50 refers to the concentration giving half of the maximal effect. On to `Cn1nc(-c2ccc(OCCCN3CCCCC3)cc2)c2c(c1=O)CCC2`, for which the IC50 in [3], in series [5], in series [6], in series [7] and in [9] was above 30000 nM throughout. Further, in [4], the Kb worked out at 0.2 nM. Besides, the Ki in series [1] was 0.5 nM; in series [2] it was 4.3 nM. Also, in series [8], the EC50 stood at 0.8 nM.
Usually bioavailability stands for dose-corrected exposure relative to a reference, in per cent. A higher bioavailability goes with good availability. In general, AUC refers to the area under the concentration-time curve, a measure of exposure. High values mean more exposure, low ones less exposure. One may read the Cmax as the highest concentration seen after dosing. As a reminder, the half-life is how long it takes for the measured level to halve. For orientation: clearance means the rate of elimination divided by the concentration. As usually defined, the Vd is the apparent volume that relates the amount in the body to the concentration in plasma or blood. A higher Vd goes with extensive tissue distribution. In the case of `CC(C)n1nc(-c2ccc(OCCCN3CCC[C@H]3C)cc2)c2sccc2c1=O`, the IC50 in series [3], in series [5], in series [6], in series [7] and in series [9] was above 30000 nM each time. Besides, the Ki in [1] came to 2.6 nM; in series [2], 8.3 nM. The same compound gave a bioavailability in series [10] below 1%. In addition, in series [11], the Kp at 1 h was 4.07. In series [12], this compound displayed an AUC of 160 ng·h/mL. This compound also showed a Cmax in series [13] below 5 ng/mL. Moreover, the half-life in series [14] is 18 min. The same compound gave a clearance in series [15] of 117 mL/min/kg. Also, the Vd in [16] came out at 2.98 L/kg.
The term inhibition denotes the share of the control response that was lost under treatment. Turning to `C[C@@H]1CCCN1CCCOc1ccc(-c2nn(C)c(=O)c3c2CCC3)cc1`, the IC50 in [3], in series [5], in [6], in [7] and in series [9] was above 30000 nM in each case. Further, the Kb in series [4] came to 0.2 nM. Further, the Ki amounted to 0.4 nM in [1] and 2 nM in [2]. For the same compound, in series [10], the bioavailability is below 1%. In addition, the Kp at 1 h in series [11] stood at 1.2. Also, the inhibition in series [17] is 68%; in [18], below 30%; in series [19] it was below 30%; in series [20], below 30%; in [23] it was 60%. Besides, the area under the curve (AUC) in [12] was 182 ng·h/mL; in [22], 5.82 ng·h/mL. The same compound displayed a Cmax in [13] of 7 ng/mL. Also, the half-life in series [14] is 15.6 min. The same compound showed a clearance in series [15] of 163 mL/min/kg. Also, the EC50 in [8] came out at 0.8 nM. This compound also displayed an inhibition at 10 µM in [21] of 23%. The compound also yielded a Vd in series [16] of 3.35 L/kg.
Regarding `Cn1nc(-c2ccc(OCCCN3CCCCC3)cc2)c2ccccc2c1=O`, the IC50 in [3], in series [5], in series [6], in [7] and in [9] was above 30000 nM throughout. For the same compound, the half-life in series [24] was above 40 min; in series [25], above 40 min; in [26], above 40 min; in series [14], 18 min. Also, the values for the Ki in series [1] and in series [2] were 0.8 nM and 9 nM, respectively. The same compound showed a bioavailability in series [10] below 1%. Also, in [11], the Kp at 1 h is 2.98. Further, the AUC stood at 402 ng·h/mL in series [12] and 14 ng·h/mL in series [22]. Besides, the Cmax in series [13] was determined as 20 ng/mL. Further, the clearance in series [15] was 52 mL/min/kg. Moreover, the Vd in series [16] is 1.36 L/kg.
As for `CCN(CC)CCCOc1ccc(-c2nn(C(C)C)c(=O)c3ccsc23)cc1`, the results for the Ki in [1] and in [2] were 23 nM and 167 nM, respectively.
Taken in the same sequence, the figures for `O=c1c2ccccc2c(-c2ccc(OCCCN3CCCCC3)cc2)nn1Cc1ccc(Cl)cc1` were 11 nM and 23 nM.
The matching figures for `Cn1nc(-c2ccc(OCCCN3CCCC3)cc2)c2ccccc2c1=O`: 1.7 nM and 3.6 nM.
The matching figures for `C[C@@H]1CCCN1CCCOc1ccc(-c2nn(Cc3ccc(Cl)cc3)c(=O)c3ccccc23)cc1`: 4.6 nM and 12 nM.
Regarding `Cn1nc(-c2ccc(OCCCN3CCCCCC3)cc2)c2ccccc2c1=O`, the values for the Ki in [1] and in series [2] were 1.4 nM and 1.8 nM, respectively.
Take `Cn1nc(-c2ccc(OCCCN3CCCCC3)cc2)c2c(c1=O)CCCC2`: the IC50 in series [3], in series [5], in [6], in series [7] and in [9] was above 30000 nM in each case. Besides, the Ki in series [1] is 1.5 nM; in series [2], 4.5 nM.
Regarding `C[C@@H]1CCCN1CCCOc1ccc(-c2nn(C)c(=O)c3c2CCCC3)cc1`, the IC50 in [3], in [5], in [6], in [7] and in series [9] was above 30000 nM throughout. Also, the Ki in series [1] is 0.8 nM; in series [2] it was 1.2 nM.
With `CC(C)n1nc(-c2ccc(OCCCN3CCCCC3)cc2)c2sccc2c1=O`, the Ki in series [1] was found to be 1.9 nM; in [2], 19 nM.
As to `C[C@@H]1CCCN1CCCOc1ccc(C2=NN(C)C(=O)C3CCCC23)cc1` (some centres not stated), the IC50 in series [3], in series [5], in series [6], in series [7] and in series [9] was above 30000 nM each time. The Ki was 1.6 nM in [1] and 4.7 nM in series [2].
Regarding `C[C@@H]1CCCN1CCCOc1ccc(-c2nn(Cc3ccc(Cl)cc3)c(=O)c3ccsc23)cc1`, the Ki was found to be 2.4 nM in series [1] and 12 nM in series [2].
As for `COC[C@@H]1CCCN1CCCOc1ccc(-c2nn(C(C)C)c(=O)c3ccsc23)cc1`, the Ki was 50 nM in series [1] and 1170 nM in series [2].
The matching figures for `COC[C@H]1CCCN1CCCOc1ccc(-c2nn(C(C)C)c(=O)c3ccsc23)cc1`: 1120 nM and above 3000 nM.
Consider `CC(C)n1nc(-c2ccc(OCCCN3CCCC3)cc2)c2sccc2c1=O`, for which the Ki worked out at 4 nM in [1] and 7 nM in series [2].
`CCCn1nc(-c2ccc(OCCCN3CCC[C@H]3C)cc2)c2sccc2c1=O`: the Ki in [1] worked out at 1.5 nM; in series [2], 12 nM.
As for `CN1N=C(c2ccc(OCCCN3CCCCC3)cc2)C2CCCC2C1=O` (configuration not stated), the IC50 in [3], in [5], in series [6], in series [7] and in series [9] was above 30000 nM in each case. Moreover, the results for the Ki in [1] and in [2] were 2.3 nM and 9.4 nM, respectively.
For the compound `C[C@@H]1CCCN1CCCOc1ccc(-c2nn(C)c(=O)c3ccccc23)cc1`, the Ki in [1] came out at 0.8 nM; in series [2], 3.8 nM.
The matching figures for `Cn1nc(-c2ccc(OCCN3CCCCC3)cc2)c2ccccc2c1=O`: 84 nM and above 1000 nM.
